Data taken from US20230339866A1, “Quinazoline compounds and the use thereof in the treatment of cancer” (TROBIO THERAPEUTICS PTY LTD, priority 2020, published 2023).

Key:
A2780 (ovarian) = test: Anti-proliferative activity (Cell-Titre luminescence) against A2780 ovarian cancer cells; assay type: cell-based; details: Homo sapiens, A2780, 72 h, 72 h exposure, Cell-Titre luminescent reagent
Description: (§1) The ability of compounds of the invention to inhibit the proliferation of cancer cells representative of non-small cell lung cancer and ovarian cancer (Table 2), pancreatic cancer, colorectal cancer and prostate cancer (Table 3) was assessed. Briefly, a predetermined number of cells as calculated from cell growth assays for each of the cell lines employed were seeded into their respective culture medium (using ATCC culture parameters—http://www.atcc.org) and cultured for 24 h at 37° C. and 5% CO2 in 96-well culture plates. Once attached, each cell line was then exposed to various concentrations of each respective analogue (30, 10, 3, 1, 0.3 and 0.1 μM), cultured for a further 72 h and exposed to Cell-Titre luminescent reagent (100 μL/well) for a further 30 min. Luminescence was captured using an EnVision multilabel reader and the data for each analogue concentration compared against no treatment control. Cell viability was normalised to control (vehicle alone) and dose response curves, and half maximal effective concentration (EC50) values were determined using Graph Pad Prism 6 (nonlinear regression sigmoidal dose-response variable slope).

A549 (NSCLC) = test: Anti-proliferative activity (Cell-Titre luminescence) against A549 non-small cell lung cancer cells; assay type: cell-based; details: Homo sapiens, A549, 72 h, 72 h exposure, Cell-Titre luminescent reagent
Description: as §1

| SMILES | IC50 (A2780 (ovarian)) | IC50 (A549 (NSCLC)) |
| --- | --- | --- |
| CN1CCN(CCNc2nc(-c3ccoc3)nc3ccccc23)CC1 [Compound 15, 2-(furan-3-yl)-N-(2-(4-methylpiperazin-1-yl)ethyl)quinazolin-4-amine] | > 30 µM | > 30 µM |
| CCc1ccc(Nc2nc(NCCN3CCN(C)CC3)c3ccccc3n2)cc1 [Compound 55, N^2-(4-ethylphenyl)-N^4-(2-(4-methylpiperazin-1-yl)ethyl)quinazoline-2,4-diamine] | 7.16 µM | 4.45 µM |
| CN1CCN(CCNc2nc(NCCc3cccc(C#N)c3)nc3ccccc23)CC1 [Compound 126, 3-(2-((4-((2-(4-methylpiperazin-1-yl)ethyl)amino)quinazolin-2-yl)amino)ethyl)benzonitrile] | 2.5 µM | 14.8 µM |
| CN1CCN(CCNc2nc(NCCc3ccc(N)cc3)nc3ccccc23)CC1 [Compound 133, N^2-(4-aminophenethyl)-N^4-(2-(4-methylpiperazin-1-yl)ethyl)quinazoline-2,4-diamine] | 7.17 µM | 14.3 µM |
| CN1CCN(CCNc2nc(NCCc3ccc(C#N)cc3)nc3ccccc23)CC1 [Compound 131, 4-(2-((4-((2-(4-methylpiperazin-1-yl)ethyl)amino)quinazolin-2-yl)amino)ethyl)benzonitrile] | 3 µM | 11.5 µM |
| CN(C)CCCNc1nc(-c2ccc[nH]2)nc2ccccc12 [Compound 101, N^1-(2-(1H-pyrrol-2-yl)quinazolin-4-yl)-N^3,N^3-dimethylpropane-1,3-diamine] | 12.5 µM | 11.6 µM |
| COCCNc1nc(NCCc2cccc(C(F)(F)F)c2)nc2ccccc12 [Compound 116, N^4-(2-methoxyethyl)-N^2-(3-(trifluoromethyl)phenethyl)quinazoline-2,4-diamine] | 1.39 µM | 3.6 µM |
| c1c[nH]c(-c2nc(NCCc3c[nH]cn3)c3ccccc3n2)c1 [Compound 106, N-(2-(1H-imidazol-4-yl)ethyl)-2-(1H-pyrrol-2-yl)quinazolin-4-amine] | 8.43 µM | 15.6 µM |
| COc1ccc(CCNc2nc(NCCO)c3ccccc3n2)cc1 [Compound 39, 2-((2-((4-methoxyphenethyl)amino)quinazolin-4-yl)amino)ethan-1-ol] | 11.9 µM | > 30 µM |
| COc1ccc(CCNc2nc(NCCN3CCN(C)CC3)c3ccccc3n2)cc1OC [Compound 137, N^2-(3,4-dimethoxyphenethyl)-N^4-(2-(4-methylpiperazin-1-yl)ethyl)quinazoline-2,4-diamine] | 8.71 µM | 13.4 µM |
| CN(C)CCNc1nc(NCCc2ccc(F)cc2)nc2ccccc12 [Compound 68, N^4-(2-(dimethylamino)ethyl)-N^2-(4-fluorophenethyl)quinazoline-2,4-diamine] | 3.91 µM | 6.65 µM |
| OCCNc1nc(NCCc2cccc(F)c2)nc2ccccc12 [Compound 90, 2-((2-((3-fluorophenethyl)amino)quinazolin-4-yl)amino)ethan-1-ol] | 5.19 µM | 3.87 µM |
| CN1CCN(CCNc2nc(NCCc3ccco3)nc3ccccc23)CC1 [Compound 148, N^2-(2-(furan-2-yl)ethyl)-N^4-(2-(4-methylpiperazin-1-yl)ethyl)quinazoline-2,4-diamine] | 7.77 µM | > 30 µM |
| FC(F)(F)c1cccc(Nc2nc(NCCc3c[nH]cn3)c3ccccc3n2)c1 [Compound 79, N^4-(2-(1H-imidazol-4-yl)ethyl)-N^2-(3-(trifluoromethyl)phenyl)quinazoline-2,4-diamine] | 18.9 µM | > 30 µM |
| CN1CCN(CCNc2nc(NCCc3ccc(Cl)cc3)nc3ccccc23)CC1 [Compound 130, N^2-(4-chlorophenethyl)-N^4-(2-(4-methylpiperazin-1-yl)ethyl)quinazoline-2,4-diamine] | 2.88 µM | 10.9 µM |
| NCCNc1nc(NCCc2cccc(C(F)(F)F)c2)nc2ccccc12 [Compound 118, N^4-(2-aminoethyl)-N^2-(3-(trifluoromethyl)phenethyl)quinazoline-2,4-diamine] | 1.92 µM | 4.05 µM |
| OCCNc1nc(NCCc2ccc(F)cc2)nc2ccccc12 [Compound 91, 2-((2-((4-fluorophenethyl)amino)quinazolin-4-yl)amino)ethan-1-ol] | 5.42 µM | 6.76 µM |
| CN1CCN(CCNc2nc(NCCc3ccccc3)nc3ccccc23)CC1 [Compound 50, N^4-(2-(4-methylpiperazin-1-yl)ethyl)-N^2-phenethylquinazoline-2,4-diamine] | 7.68 µM | 5.3 µM |
| COc1cccc(CNc2nc(NCCO)c3ccccc3n2)c1 [Compound 33, 2-((2-((3-methoxybenzyl)amino)quinazolin-4-yl)amino)ethan-1-ol] | 8.95 µM | 21 µM |

| SMILES | IC50 (A2780 (ovarian)) | IC50 (A549 (NSCLC)) |
| --- | --- | --- |
| COc1ccc(Nc2nc(NCCO)c3ccccc3n2)cc1 [Compound 30, 2-((2-((4-methoxyphenyl)amino)quinazolin-4-yl)amino)ethan-1-ol] | > 30 µM | > 30 µM |
| CN1CCN(CCNc2nc(NCCc3ccc4c(c3)OCO4)nc3ccccc23)CC1 [Compound 143, N^2-(2-(benzo[d][1,3]dioxol-5-yl)ethyl)-N^4-(2-(4-methylpiperazin-1-yl)ethyl)quinazoline-2,4-diamine] | 3.01 µM | 9.48 µM |
| OCCNc1nc(-c2cccs2)nc2ccccc12 [Compound 18, 2-((2-(thiophen-2-yl)quinazolin-4-yl)amino)ethan-1-ol] | > 30 µM | > 30 µM |
| c1ccc2c(NCCc3c[nH]cn3)nc(-c3ccsc3)nc2c1 [Compound 105, N-(2-(1H-imidazol-4-yl)ethyl)-2-(thiophen-3-yl)quinazolin-4-amine] | 9.05 µM | 24.1 µM |
| COc1ccc(Nc2nc(NCCN3CCN(C)CC3)c3ccccc3n2)cc1 [Compound 44, N^2-(4-methoxyphenyl)-N^4-(2-(4-methylpiperazin-1-yl)ethyl)quinazoline-2,4-diamine] | 2.49 µM | 5.8 µM |
| CN1CCN(CCNc2nc(NCCc3cccs3)nc3ccccc23)CC1 [Compound 147, N^4-(2-(4-methylpiperazin-1-yl)ethyl)-N^2-(2-(thiophen-2-yl)ethyl)quinazoline-2,4-diamine] | 2.81 µM | 3.18 µM |
| OCCNc1nc(NCCc2cccc(C(F)(F)F)c2)nc2ccccc12 [Compound 36, 2-((2-((3-(trifluoromethyl)phenethyl)amino)quinazolin-4-yl)amino)ethan-1-ol] | 2.32 µM | 2.67 µM |
| CCc1ccc(CCNc2nc(NCCCN(C)C)c3ccccc3n2)cc1 [Compound 76, N^4-(3-(dimethylamino)propyl)-N^2-(4-ethylphenethyl)quinazoline-2,4-diamine] | 7.11 µM | 8.88 µM |
| CN1CCN(CCNc2nc(NCc3ccc(C(F)(F)F)cc3)nc3ccccc23)CC1 [Compound 47, N^4-(2-(4-methylpiperazin-1-yl)ethyl)-N^2-(4-(trifluoromethyl)benzyl)quinazoline-2,4-diamine] | 6.13 µM | 3.28 µM |
| CN1CCN(CCNc2nc(N3CCCC3)nc3ccccc23)CC1 [Compound 16, N-(2-(4-methylpiperazin-1-yl)ethyl)-2-(pyrrolidin-1-yl)quinazolin-4-amine] | 22.5 µM | > 30 µM |
| COc1cccc(CNc2nc(NCCN3CCN(C)CC3)c3ccccc3n2)c1 [Compound 48, N^2-(3-methoxybenzyl)-N^4-(2-(4-methylpiperazin-1-yl)ethyl)quinazoline-2,4-diamine] | 4.52 µM | 7.4 µM |
| OCCNc1nc(-c2cc[nH]c2)nc2ccccc12 [Compound 21, 2-((2-(1H-pyrrol-3-yl)quinazolin-4-yl)amino)ethan-1-ol] | > 30 µM | > 30 µM |
| COc1cccc(CCNc2nc(NCCN3CCN(C)CC3)c3ccccc3n2)c1 [Compound 53, N^2-(3-methoxyphenethyl)-N^4-(2-(4-methylpiperazin-1-yl)ethyl)quinazoline-2,4-diamine] | 18.2 µM | > 30 µM |
| OCCNc1nc(-n2cccc2)nc2ccccc12 [Compound 25, 2-((2-(1H-pyrrol-1-yl)quinazolin-4-yl)amino)ethan-1-ol] | > 30 µM | > 30 µM |
| CN1CCN(CCNc2nc(NCCc3ccccc3Cl)nc3ccccc23)CC1 [Compound 123, N^2-(2-chlorophenethyl)-N^4-(2-(4-methylpiperazin-1-yl)ethyl)quinazoline-2,4-diamine] | 2.38 µM | 3.36 µM |
| CN1CCN(CCNc2nc(Nc3ccc(C(F)(F)F)cc3)nc3ccccc23)CC1 [Compound 42, N^4-(2-(4-methylpiperazin-1-yl)ethyl)-N^2-(4-(trifluoromethyl)phenyl)quinazoline-2,4-diamine] | 1.69 µM | 4.94 µM |
| CN1CCN(CCNc2nc(NCCc3ccccc3C(F)(F)F)nc3ccccc23)CC1 [Compound 120, N^4-(2-(4-methylpiperazin-1-yl)ethyl)-N^2-(2-(trifluoromethyl)phenethyl)quinazoline-2,4-diamine] | 1.4 µM | 5.28 µM |
| CN1CCN(CCNc2nc(NCCc3ccc(O)cc3)nc3ccccc23)CC1 [Compound 132, N^2-(4-hydroxyphenethyl)-N^4-(2-(4-methylpiperazin-1-yl)ethyl)quinazoline-2,4-diamine] | 4.71 µM | 8.03 µM |
